Test [1] can be described thus: Antiestrogenic activity in human ERalpha expressing MCF7:WS8 cells assessed as inhibition of estradiol-induced proliferation at 1 uM after 7 days. It counts as functional, cell-based.
The subject of a further test is MCF7:WS8. Briefly: (§1) Estrogenic activity in human ERalpha expressing MCF7:WS8 cells assessed as stimulation of cell proliferation after 7 days. It counts as functional.
The nature of test [2]: as §1. It counts as functional.

Active and inactive are the calls of the source. No cut-off for these calls is given here.

For the compound `CC/C(=C(\c1ccc(O)cc1)c1ccc(OCCNC)cc1)c1ccccc1`, the inhibition entry in test [1] was “Active”. Moreover, in the test with MCF7:WS8, the outcome was inactive.

The EC50 is the concentration giving half of the maximal effect. Take `CC/C(=C(/c1ccccc1)c1ccc(O)cc1)c1ccc(O)cc1`: in test [2] (mcf7:ws8), the EC50 was 1 10^-1nmol.

As to `CCC(=C(c1ccc(O)cc1)c1ccc(OCCN(C)C)cc1)c1ccccc1`, in test [1], the inhibition result was “Active”. In addition, the result with MCF7:WS8 was inactive.

Turning to `CCC(=C(c1ccc(O)cc1)c1ccc(O)cc1)c1ccccc1`, the EC50 in test [2] (mcf7:ws8) is on record as 5 10^-2nmol.

On to `CCC(=C(c1ccc(O)cc1)c1ccc(O)cc1)c1ccc(O)cc1`, for which the inhibition result in test [1] was “inactive”. The EC50 in test [2] (mcf7:ws8) is 1.5 10^-1nmol.

With `CC/C(=C(\c1ccccc1)c1ccc(O)cc1)c1ccc(O)cc1`, the concentration for a half-maximal effect (EC50) in test [2] (mcf7:ws8) is listed as 1 10^-1nmol.

For the compound `CCOc1ccc(/C(=C(/CC)c2ccc(O)cc2)c2ccc(O)cc2)cc1`, in test [1], the inhibition result is “inactive”. Besides, the EC50 in test [2] (Homo sapiens, MCF7:WS8, 168 h, read-out: EC50) was found to be 4 nM.

Consider `C[C@]12CC[C@@H]3c4ccc(O)cc4CC[C@H]3[C@@H]1CC[C@@H]2O` [ESTRADIOL], for which the 50% effective concentration (EC50) in test [2] (mcf7:ws8) was 0.001 nM.

Take `CC/C(=C(/c1ccc(O)cc1)c1ccc(OCCN(C)C)cc1)c1ccccc1`: the outcome with MCF7:WS8 was inactive.

These data come from ChEMBL document CHEMBL1156189, “Structure-function relationships of estrogenic triphenylethylenes related to endoxifen and 4-hydroxytamoxifen” (J Med Chem, 2010).
